# From patent US4629739A, “Substituted sulfonamidobenzamides and method of treating arrhythmias” (priority 1985, dated 1986)
# “Also recorded” adds a separate entry of the source. Like-named read-outs stand apart in the source and are kept apart here.
# How the values were obtained:
# cardiovascular function [1] = conditions: cited from earlier work; for depression of cardiac function: Class I drugs; for cardiovascular / hemodynamic depression in vivo: doses approximating the therapeutic dose
# cardiac tissue [2] = conditions: cited from earlier work; for effect on conduction: known drugs
# [3] = system: canine cardiac Purkinje fibers; experiment: action potential duration and upstroke by standard electrophysiological techniques in normal canine Purkinje fibres; format: cell-based
# Text: The action of the compounds of this invention is attributed to their ability to prolong the action potential of the cardiac tissue. Therefore, they are Class III antiarrhythmic agents within the Vaughan-Williams classification of antiarrhythmic agents. Such activity has been analyzed in several procedures, for instance, utilizing standard electrophysiological techniques to measure resting potential, action potential amplitude, duration, rate of rise and refractory periods of normal canine Purkinje fibres; and also utilizing re-entrant arrhythmias induced by programmed electrical stimulation in the conscious dog.
# arrhythmia [4] = experiment: therapeutic dose; conditions: in vivo
# local anesthetic action = conditions: doses up to 50-100 times the concentration which prolongs action potential duration by 20%
# cardiovascular function [5] = experiment: cardiovascular / hemodynamic depression in vivo; conditions: doses 10 to 30 times the therapeutic dose (1-3 mg/kg)
# cardiac tissue [6] = experiment: conduction and refractoriness in the cardiac tissue
# [7] = system: ganglionic and vagal transmission; experiment: effects on ganglionic and vagal transmission; format: in vivo; conditions: doses up to 10 mg/kg (i.e., 3-10 times the effective dose)
# [8] = system: re-entrant ventricular tachycardia; experiment: model of re-entrant ventricular tachycardia in dogs; format: in vivo, dog; conditions: anesthetized dogs; times more potent than acecainide
# arrhythmia [9] = conditions: cited from earlier work
# [10] = cited from earlier work
# man = conditions: cited from earlier work; for drug induced lupus erythematosis: in man
# [11] = system: ganglionic and vagal transmission; conditions: in vivo; literature; cited from earlier work
# cardiac action potential = conditions: in vitro; Goodman & Gilman, 6th Ed., 1980, pg. 768; cited from earlier work
local anesthetic action (local anesthetic action),SMILES,depression of cardiac function (cardiovascular function [1]),effect on conduction (cardiac tissue [2]),effect on action potential duration [3],effect on action potential upstroke [3],therapeutic dose (arrhythmia [4]) [mg/kg],cardiovascular depression in vivo (cardiovascular function [5]),conduction disturbances in the heart / effect on conduction (cardiac tissue [6]),effects on ganglionic or vagal transmission [7],potency relative to acecainide in a model of re-entrant ventricular tachycardia [8] [times],drug induced lupus erythematosis (man),cardiovascular / hemodynamic depression in vivo (cardiovascular function [1]),other results
–,C=C[C@H]1C[N@@]2CC[C@H]1C[C@@H]2[C@@H](O)c1ccnc2ccc(OC)cc12 [quinidine],depress cardiac function,slowing conduction,–,–,–,–,–,–,–,–,–,–
No local anesthetic action,CCCCCCCNCCNC(=O)c1ccc(NS(C)(=O)=O)cc1.Cl [N-[2-(Heptylamino)ethyl]-4-[(methylsulfonyl)amino]benzamide hydrochloride],–,–,prolong action potential duration,without slowing the action potential upstroke (it may be increased),1 to 3,no evidence for cardiovascular depression,no conduction disturbances in the heart,nor is there any evidence for effects on ganglionic or vagal transmission,10,–,–,–
–,CC(C)N(CCC(C(N)=O)(c1ccccc1)c1ccccn1)C(C)C (stereo not shown) [disopyramide],depress cardiac function,slowing conduction,–,–,–,–,–,–,–,–,–,–
–,CCN(CC)CCNC(=O)c1ccc(NC(C)=O)cc1 [acecainide],–,little effect on conduction of the cardiac action potential,–,–,–,–,–,–,–,shown to cause lupus,causes such depression at doses approximating the therapeutic dose,antiarrhythmic activity (arrhythmia [9]; reported): antiarrhythmic activity; mutagenic activity relative to procainamide (Ames Test) (bacteria (Ames Test)): one-half as active; deacetylation in man [10]: deacetylated in man; incidence of lupus relative to procainamide (man; versus procainamide): significantly lower than for procainamide; prolongation of refractoriness (cardiac tissue [2]; known drug): does prolong refractoriness
No local anesthetic action,CS(=O)(=O)Nc1ccc(C(=O)NCCNCc2ccccc2)cc1.Cl [4-[(Methylsulfonyl)amino]-N-[2-((phenylmethyl)amino)ethyl]benzamide hydrochloride],–,–,prolong action potential duration,without slowing the action potential upstroke (it may be increased),1 to 3,no evidence for cardiovascular depression,no conduction disturbances in the heart,nor is there any evidence for effects on ganglionic or vagal transmission,10,–,–,–
–,CCN(CC)CCNC(=O)c1ccc(N)cc1 [procainamide],depress cardiac function,slowing conduction,–,–,–,–,–,–,–,drug induced lupus erythematosis,causes cardiovascular depression; also recorded: causes such depression at doses approximating the therapeutic dose,"therapeutic dose (arrhythmia [9]; in vivo, literature): 20 to 40 mg/kg; level showing significant mutagenic potential (Ames Test) (bacteria (Ames Test)): ≤ 0.2 mg/plate; ganglionic and vagal transmission [11]: blocks ganglionic and vagal transmission; effect on action potential duration (cardiac action potential): prolongs action potential duration; effect on action potential upstroke (cardiac action potential): slows action potential upstroke"
